Laboratory results reported in patent US20050090498A1, “3-Quinolin-2(1h)-ylideneindolin-2-one derivative” (priority 2001, published 2005).

Assays:
[1] = system: Human umbilical vein endothelial cells (HUVEC), VEGF-stimulated; experiment: Test on the inhibition of VEGF-stimulated HUVEC growth ([3H]thymidine incorporation); format: cell-based; conditions: human recombinant VEGF 10 ng/ml
Experimental: Test method: (Cell culture) Human umbilical vein endothelial cells (HUVEC) were cultured using EGM-2 complete medium (Clonetics) which had been supplemented with additives (2% FBS, 0.4% FGF (fibroblast growth factor), 0.1% VEGF, 0.1% IGF-I (insulin like growth factor-I), 0.1% EGF (epidermal growth factor), 0.1% ascorbic acid, 0.1% GA-1000, 0.1% heparin and 0.04% hydrocortisone).
(Evaluation of compounds) HUVEC (10,000 cells/well) were inoculated into EGM-2 complete medium in a gelatin-coated 96 well plate (mfd. by IWAKI) and cultured overnight. After washing with a physiological phosphate buffer, the medium was exchanged with a low serum medium (Medium 199/0.1% FBS) and the culturing was continued for 24 hours. Each of the compounds to be evaluated was prepared as a 10 mM DMSO solution and diluted with the low serum medium. This was added to each well to a final concentration of from 0.001 to 10 μM. After 2 hours of the compound treatment, human recombinant VEGF (R & D Systems) was added to a final concentration of 10 ng/ml. After 18 hours, [^3H]thymidine (Amersham Pharmacia) was added in 5 μCi/well portions. After 4 hours, the reaction was terminated by adding 0.2% SDS in 50 μl/well portions, and the product was recovered on GF/C Unifilter (Packard). After adding 25 μl of Microscinti 20 (Packard), the radioactivity incorporated into the DNA trapped on the filter was measured using TopCount (Packard). The IC50 of the inhibitory activity of each compound was calculated as the 50% inhibition concentration (IC50 value) of each compound to be tested, by defining the incorporated amount of [^3H]thymidine at the time of VEGF addition as 100%, and its incorporated amount at the time of no addition of VEGF as 0%.

[2] = system: human colon tumor COLO 205; experiment: In vivo anti-tumor test using human colon tumor bearing nude mice; design: species or system female Balb/c nude mouse; conditions: COLO 205 bearing nude mice, oral once a day for 14 days, 10 or 30 mg/kg/day
Experimental: Test method: A total of 4×10^6 cells of a human colon tumor COLO 205 were administered under the dorsal side skin of each female Balb/c nude mouse. When the tumor volume reached 50 to 100 mm^3, each of the test compounds was orally administered once a day for 14 days. In addition, 0.5% methyl cellulose aqueous solution was orally administered to the control group. Calipers were used for the measurement of tumor diameter, and it was measured on the next day of the final administration. In this case, the tumor volume was calculated using the following calculation formula. Tumor volume=(width^2×length)/2

[3] = system: Human umbilical vein endothelial cells (HUVEC), VEGF-stimulated; experiment: Test on the inhibition of VEGF-stimulated HUVEC growth ([3H]thymidine incorporation); format: cell-based; conditions: human recombinant VEGF 10 ng/ml; remark: listed apart in the source
[4] = system: VEGF-dependent in vitro angiogenesis (endotherial vessel forming amount); experiment: In vitro angiogenesis inhibition test (KURABO angiogenesis kit, CD31 staining); format: cell-based; conditions: Homo sapiens, 312 h; 10 ng/ml VEGF, 13 days culture, anti-VEGF antibody as 0% control
Experimental: Test method: An angiogenesis assay kit (mfd. by KURABO was used. A medium prepared by adding 10 ng/ml of VGEF (R & D Systems) to the special medium attached to the kit used as the culture medium. Each test drug was prepared as a 10 mM DMSO solution and added to a final concentration of from 0.003 to 1 μM by diluting with the special medium. Amount of angiogenesis under a condition of not adding the test drug was used as the positive control, and a condition under which 25 μg/ml of an anti-VEGF antibody (Sigma) was added was used as the negative control. On the 4th, 7th and 10th days after commencement of the culturing, the test drug was prepared as described in the above and exchanged with the medium of each well. On the 13th day, fixation of the cell layer was carried out in accordance with the method attached to the kit. That is, fixation of cell layer was carried out by adding ice-cooled 70% ethanol after washing with a physiological phosphate buffer and then allowing to stand at room temperature for 30 minutes. […]
A endotherial vessel staining kit CD31 for staining (mfd. by KURABO) was used for the staining of the thus formed hollow organ. […] By importing the file preserved in the imaging software, the number of pixel obtained by threshold and measure commands was recorded. […]

IC50 [4] [µM]	SMILES	IC50 [1] [µM]	tumor growth inhibition (tumor volume) versus control [2]	IC50 [3] [µM]
	O=C1Nc2ccc(F)cc2C1=C1C=Cc2cc(OCCN3CCOCC3)ccc2N1 [Example 311]	0.24	inhibit the tumor growth with a significance for the control	
	CCN1CCN(Cc2ccc3c(c2)C=CC(=C2C(=O)Nc4ccccc42)N3)CC1 [Example 134, 3-{6-[(4-ethylpiperazin-1-yl)methyl]quinolin-2(1H)-ylidene}indolin-2-one]		inhibit the tumor growth with a significance for the control	
	O=C1Nc2ccccc2C1=C1C=Cc2cc(CNC3CCOCC3)ccc2N1 [Example 115]		inhibit the tumor growth with a significance for the control	
	CN1CCN(C(=O)c2ccc3c(c2)C=CC(=C2C(=O)Nc4ccccc42)N3)CC1 [Example 148, 3-[6-(4-methylpiperazine-1-carbonyl)quinolin-2(1H)-ylidene]indolin-2-one]		inhibit the tumor growth with a significance for the control	0.074
	Cl.O=C1Nc2ccccc2C1=C1C=Cc2cc(CNCC3CCOCC3)ccc2N1 [Example 113]		inhibit the tumor growth with a significance for the control	
0.069	O=C1Nc2ccccc2C1=C1C=Cc2ccccc2N1 [Compound A, 3-quinolin-2(1H)-ylideneindolin-2-one]			0.14
	O=C1Nc2ccccc2C1=C1C=Cc2cc(CNCC3CCCO3)ccc2N1 (stereo not drawn) [Example 111]	0.3	inhibit the tumor growth with a significance for the control	
	O=C1Nc2ccccc2C1=C1C=Cc2cc(CN3CCOCC3)ccc2N1 [Example 54]	0.029	inhibit the tumor growth with a significance for the control	
	CN1CCN(Cc2ccc3c(c2)C=CC(=C2C(=O)Nc4ccccc42)N3)CC1 [Example 132, 3-{6-[(4-methylpiperazin-1-yl)methyl]quinolin-2(1H)-ylidene}indolin-2-one]		inhibit the tumor growth with a significance for the control	
	CCN(CC)CCOc1ccc2c(c1)C=CC(=C1C(=O)Nc3ccccc31)N2.O=C(O)CCC(=O)O [Example 44]	0.28	inhibit the tumor growth with a significance for the control	
	CN1CCN(CCOc2ccc3c(c2)C=CC(=C2C(=O)Nc4ccccc42)N3)CC1 [Example 41]	0.12	inhibit the tumor growth with a significance for the control	
	O=C1Nc2cc(F)ccc2C1=C1C=Cc2cc(OCCN3CCOCC3)ccc2N1 [Example 310]	0.31	inhibit the tumor growth with a significance for the control	
	CCN(CC)CCCc1ccc2c(c1)C=CC(=C1C(=O)Nc3ccccc31)N2 [Example 99]	0.13	inhibit the tumor growth with a significance for the control	
	O=C1Nc2ccccc2C1=C1C=Cc2cc(OCCN3CCOCC3)ccc2N1 [Example 4, 3-[6-(2-morpholin-4-ylethoxy)quinolin-2(1H)-ylidene]indolin-2-one]		inhibit the tumor growth with a significance for the control	0.19
